Data taken from patent publication US20160090397A1, “Se-Adenosyl-L-Selenohomocysteine Selenoxide As A Modulator Of Methyltransferase And Other Activities” (priority 2014, published 2016).
Entries after “also recorded” stand apart in the source; their conditions may differ.

Legend:
[1] = target: E. coli cyclopropane fatty acid synthase (Escherichia coli, UniProt P0A9H7); conditions: in vitro; cited from earlier work
[2] = Reduction of selenoxide/sulfoxide by thiols and thioethers at ambient temperature (C18 HPLC); type: physicochemical; conditions: for reduction by glutathione (GSH) / reduction by cysteine: ambient temperature; for reduction by glutathione (GSH): C18 HPLC
Excerpt: The sulfoxide SAHO analog was not reduced under these biological conditions with glutathione (GSH) or cysteine. The reduction of sulfoxides generally requires more forcing conditions.

[3] = target: T1, phenylethanolamine N-methyltransferase (PNMT) (Homo sapiens, UniProt P11086); conditions: in vitro; cited from earlier work
T1 sequence (P11086 1-282): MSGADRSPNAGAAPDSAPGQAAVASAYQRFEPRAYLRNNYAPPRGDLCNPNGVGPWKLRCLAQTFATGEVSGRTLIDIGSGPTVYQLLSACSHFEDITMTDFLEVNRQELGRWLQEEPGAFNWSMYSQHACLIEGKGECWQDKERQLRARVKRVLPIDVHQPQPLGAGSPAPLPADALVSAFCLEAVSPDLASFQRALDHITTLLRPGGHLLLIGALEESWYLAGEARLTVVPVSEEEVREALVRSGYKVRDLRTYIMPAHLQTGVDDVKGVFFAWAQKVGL

[4] = test system: viral mRNA methyltransferases; conditions: in vitro; cited from earlier work
[5] = target: histamine N-methyltransferase (HMT) (Homo sapiens, UniProt P50135); conditions: in vitro; cited from earlier work
[6] = target: T2, catechol-O-methyltransferase (COMT) (Homo sapiens, UniProt P21964); conditions: in vitro; cited from earlier work
T2 sequence (P21964 1-271): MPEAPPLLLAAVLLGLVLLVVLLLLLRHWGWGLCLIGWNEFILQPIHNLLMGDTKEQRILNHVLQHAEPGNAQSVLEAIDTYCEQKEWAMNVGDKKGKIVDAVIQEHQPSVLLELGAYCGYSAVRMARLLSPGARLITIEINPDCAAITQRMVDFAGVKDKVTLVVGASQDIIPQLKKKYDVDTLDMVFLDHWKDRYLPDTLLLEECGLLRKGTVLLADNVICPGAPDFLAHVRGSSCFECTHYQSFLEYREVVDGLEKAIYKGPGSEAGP

[7] = target: protein methyltransferase II (Homo sapiens, UniProt P22061); conditions: in vitro; cited from earlier work
[8] = target: T2, catechol-O-methyltransferase (COMT); assay: Reduction upon incubation with methyltransferase COMT; type: biochemical
Experimental: (§1) However, SeAHO was not reduced upon incubation with the non-methyltransferase protein lysozyme (data not shown). […] The reduction of SeAHO by methyltransferases may result in the oxidation or modification of these enzymes. This property could be exploited to identify methyltransferases that are reactive with SeAHO, or, depending on the site of oxidation, this process may modulate the activities of methyltransferases. In other words, SeAHO may act as a covalent inhibitor (reactive or suicide inhibitor) or activator of these methyltransferases.

lysozyme = assay: Incubation with non-methyltransferase protein lysozyme; type: biochemical; conditions: data not shown
Experimental: as §1

[9] = Stability of SeAHO in aqueous solutions (HPLC, proton NMR); type: physicochemical
Experimental: Characterization of selenoxide SeAHO in an aqueous environment was of greater biological significance.
The selenoxide SeAHO generally appeared to be a 60:40 mixture by ^1H NMR in 50 mM phosphate buffers of D2O at measured pH's of 3 and 7.

[10] = target: T2, catechol-O-methyltransferase (COMT); assay: COMT-catalysed oxidation of epinephrine to adrenochrome with SeAHO; type: biochemical; conditions: various COMT concentrations
Excerpt: This reactivity (redox reaction) conferred by SeAHO can be exploited to oxidize substrate compounds in a selective and specific manner.

[11] = target: T3, thiopurine methyltransferase (TPMT) (Homo sapiens, UniProt P51580); assay: Reduction upon incubation with methyltransferase TPMT; type: biochemical
T3 sequence (P51580 1-245): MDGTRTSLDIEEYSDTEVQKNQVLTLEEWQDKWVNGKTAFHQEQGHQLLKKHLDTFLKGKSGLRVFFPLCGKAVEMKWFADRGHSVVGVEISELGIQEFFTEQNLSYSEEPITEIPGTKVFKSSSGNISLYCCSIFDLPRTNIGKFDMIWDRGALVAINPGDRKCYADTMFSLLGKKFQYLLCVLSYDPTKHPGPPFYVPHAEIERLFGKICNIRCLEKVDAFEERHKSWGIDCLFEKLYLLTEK
Experimental: as §1

[12] = target: T3, thiopurine methyltransferase (TPMT); assay: Oxidation of thionitrobenzoate (TNB), Se-SAHO as TPMT substrate (absorbance); type: biochemical
Excerpt: FIG. 1 depicts an absorbance spectrum for Se—SAHO as a thiopurine methyltransferase (TPMT) substrate wherein the oxidation of thionitrobenzoate (TNB) by H2O2 causes a clear shift in absorbance maxima from ˜410 nm to ˜325 nm.

Sequence of protein methyltransferase II (P22061 whole entry): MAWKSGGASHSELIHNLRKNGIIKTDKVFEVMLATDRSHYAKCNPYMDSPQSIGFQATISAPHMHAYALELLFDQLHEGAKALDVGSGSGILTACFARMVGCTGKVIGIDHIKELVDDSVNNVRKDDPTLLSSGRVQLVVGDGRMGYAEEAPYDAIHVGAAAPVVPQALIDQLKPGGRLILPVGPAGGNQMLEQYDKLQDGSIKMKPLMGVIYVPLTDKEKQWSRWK
Sequence of histamine N-methyltransferase (HMT) (P50135 whole entry, species assumed): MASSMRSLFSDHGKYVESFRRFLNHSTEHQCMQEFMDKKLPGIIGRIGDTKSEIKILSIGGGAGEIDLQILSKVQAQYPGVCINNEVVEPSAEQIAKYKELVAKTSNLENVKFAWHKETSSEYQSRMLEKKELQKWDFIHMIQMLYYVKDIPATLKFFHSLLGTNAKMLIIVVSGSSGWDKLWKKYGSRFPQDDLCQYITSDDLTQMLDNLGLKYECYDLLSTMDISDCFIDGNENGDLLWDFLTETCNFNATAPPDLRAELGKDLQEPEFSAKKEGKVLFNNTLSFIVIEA
Sequence of E. coli cyclopropane fatty acid synthase (P0A9H7 whole entry): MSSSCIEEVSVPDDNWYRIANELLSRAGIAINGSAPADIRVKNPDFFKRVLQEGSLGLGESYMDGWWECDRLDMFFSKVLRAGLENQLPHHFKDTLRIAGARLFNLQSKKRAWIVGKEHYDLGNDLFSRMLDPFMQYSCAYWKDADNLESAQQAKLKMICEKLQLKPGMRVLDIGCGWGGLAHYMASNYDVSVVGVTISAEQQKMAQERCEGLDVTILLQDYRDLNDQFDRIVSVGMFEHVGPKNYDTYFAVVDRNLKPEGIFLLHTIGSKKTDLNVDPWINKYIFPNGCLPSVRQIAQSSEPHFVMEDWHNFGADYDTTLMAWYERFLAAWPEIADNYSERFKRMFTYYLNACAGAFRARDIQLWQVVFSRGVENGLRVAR

Row | Compound | inhibition of E. coli cyclopropane fatty acid synthase [1] | reduction by glutathione (GSH) [2] | reduction by cysteine ([2]; data not shown) | inhibition of PNMT [3] | inhibition of viral mRNA methyltransferases [4] | inhibition of HMT [5] | inhibition of COMT [6] | inhibition of protein methyltransferase II [7] | reduction upon incubation with COMT [8] | reduction upon incubation with lysozyme (lysozyme) | decomposition by HPLC ([9]; after 2 weeks or when prepared in pure deionized water) | decomposition by NMR ([9]; pH 12 phosphate buffer) | stability to hydrolysis of the C1′-adenine bond / degradation ([9]; phosphate buffered aqueous solutions, pH 3-12, ambient temperature, at least three hours, HPLC or proton NMR) | COMT-catalysed oxidation of epinephrine to adrenochrome [10] | reduction by thioether methionine ([2]; data not shown) | reduction upon incubation with TPMT [11] | oxidation of TNB (shift in absorbance maxima) [12]
1 | Nc1ncnc2c1ncn2[C@@H]1O[C@H](C[S+]([O-])CC[C@H](N)C(=O)O)[C@@H](O)[C@H]1O (some centres unmarked) [SAHO] | inhibitor | not reduced | not reduced | inhibitor | inhibitor | inhibitor | inhibitor | inhibitor | remains oxidized |  |  |  |  |  |  |  | 
2 | Nc1ncnc2c1ncn2[C@@H]1O[C@H](C[Se](=O)CC[C@H](N)C(=O)O)C(O)[C@@H]1O (some centres unmarked) [SeAHO, Se-Adenosylselenohomocysteine selenoxide] |  | readily reduced | also reduced; also recorded: readily reduced |  |  |  |  |  | reduced to Se-adenosyl-L-selenohomocysteine (SeAH) | not reduced | some decomposition was observed | only a very small amount of decomposition was observed | completely stable | reacts with epinephrine to form adrenochrome at a rate dependent on COMT concentration; also recorded: catalyzes the oxidation of epinephrine with SeAHO and the production of adrenochrome and SeAH | not by thioethers methionine | reduced to Se-adenosyl-L-selenohomocysteine (SeAH) | 
3 | Se-Adenosylselenohomocysteine selenoxide [SeAHO] |  |  |  |  |  |  |  |  |  |  |  |  |  |  |  |  | able to oxidize TNB
